Tests used:
Format in all cases: cell-based
[1] = test system: monkey meibomian gland epithelial cells; experiment: Effect on cell number increase in meibomian gland epithelial cells (Experimental Example 3, Cell Counting Kit-8); settings: medium renewed every 48 hr (3 x 48 hr), relative to non-addition group = 100%, mean ± SD, N = 5 or 10
Excerpt: An eyelid of monkey isolated and stored in D-PBS was transferred to a clean bench, and cell preparation was aseptically performed as follows.
The isolated eyelid was immersed in 80% ethanol for 30 sec, washed three times with D-PBS added with 1% penicillin-streptomycin (Invitrogen), and transferred to a minimum essential medium (MEM; Invitrogen). The adipose tissue and muscular tissue surrounding the meibomian glandular tissue of the eyelid were removed under a stereomicroscope. They were transferred to MEM containing 0.3 U/mL collagenase A (Roche Diagnostics) and 2.4 U/mL dispase II (Roche Diagnostics), and shaken at 37° C. for 4 hr and at 4° C. overnight. The enzyme-treated tissue was set under a stereomicroscope, and the eyelash and eyelid connective tissue were removed to isolate the meibomian glandular tissue. Trypsin-EDTA (4 mL, Invitrogen) was added to the isolated glandular tissue, and the mixture was incubated at 37° C. for 10 min. After incubation, MEM (5 mL) containing 10% FBS (Invitrogen) was added thereto to stop the enzyme reaction, and the tissue constituting cells were dispersed by repeated suction and discharge of the mixture 5 times using an injection syringe equipped with a 21 G injection needle. The cell dispersion was passed through 100 μm and 40 μm nylon filters (Cell Strainer; Falcon), and cell mass and the like contained therein which could not be treated with the enzyme were removed. The cell suspension passed through the filters was collected in a centrifuge tube (50 mL) and centrifuged at room temperature, 1,500 rpm for 5 min. To the cell layers containing the object cells obtained by the centrifugation was added 80 μL of D-PBS containing 0.5% bovine serum albumin (BSA; Sigma-Aldrich), and the cells were sufficiently suspended therein. Anti-Fibroblast Microbeads (Militenyi Biotec, 20 μL) was added thereto, and the mixture was left standing at room temperature for 30 min. After completion of the reaction with an antibody, 2 mL of D-PBS containing 0.5% BSA was added thereto, and the mixture was centrifuged again at room temperature, 1,500 rpm for 5 min. To the cell layers containing the object cells obtained by the centrifugation was added 1 mL of D-PBS containing 0.5% BSA, and the cells were sufficiently suspended therein. The suspension was added dropwise to LD column (Militenyi Biotec) equilibrated in advance with a column washing solution (D-PBS containing 2 mM EDTA (DOJINDO LABORATORIES) and 0.5% BSA). Then, 2 mL of the column washing solution was added dropwise to the LD column. […] The cells collected in the centrifuge tube were centrifuged at room temperature, 1,500 rpm for 5 min, and the supernatant was removed. The sediment was suspended in Defined Keratinocyte Serum Free Medium (5 mL), centrifuged at room temperature, 1,500 rpm for 5 min, and removed the supernatant. Again, the residue was suspended in DK-SFM (3 mL), centrifuged at room temperature and 1,500 rpm for 5 min, and the supernatant was removed. The cells were suspended in DK-SFM (2 mL), and seeded on a 6 well multi-well plate for cell culture, which had been treated with collagen. The seeded cells were cultured in Defined keratinocyte-Serum Free Medium (DK-SFM; Invitrogen, attached Supplement was added as instructed in the preparation protocol), cultured in an incubator (SANYO) set to 37° C., 5% CO2, 95% air, 100% humidity, and the culture medium was exchanged with a new one every 48 hr until the cells became subconfluent.
As a test substance, compound A, [4-[3-[2-(4-trifluoromethyl)phenyl-4-isopropyl-5-thiazolyl]propionyl]-2-methylphenoxy]acetic acid (hereinafter to be referred to as compound B) or [4-[3-[2-(2-hydroxy-4-chlorophenyl)-5-isopropyl-4-oxazolyl]propionyl]-2-methylphenoxy]acetic acid (hereinafter to be referred to as compound C) was used. […]

[2] = test system: Normal human corneal epithelial cells; experiment: Effect on increase of cell number of normal human corneal epithelial cells (Experimental Example 4, Cell Counting Kit-8); settings: for effect on cell number of normal human corneal epithelial cells (in words): 0.01-1 μM, conclusion of the test; for cell number increase rate: relative to non-addition group = 100%, mean ± SD, N = 4
Protocol: (§1) Normal human corneal epithelial cells (KURABO) were used.
As a test substance, compound B or compound C was used. Compound B and compound C were each dissolved in ethanol (Wako Pure Chemical Industries, Ltd.) to a concentration 200-fold of the final concentration in a culture medium, and the solution was stored at −80° C. until immediately before use.
As a cell culture medium for consideration of the cell number-increasing effect by compound B and compound C, a culture medium (basal medium) obtained by adding insulin, hydrocortisone and transferrin contained in HCGS growth additive set (KURABO) to EpiLife (KURABO) was used.
Normal human corneal epithelial cells cryopreserved in liquid nitrogen were thawed and the cell number was counted. The total amount thereof was transferred to EpiLife added with all of the HCGS growth additive set (insulin, epidermal growth factor mEGF derived from mouse, hydrocortisone, transferrin, bovine brain hypophysis extract) (4 mL, complete medium), and suspended well therein. The cell suspension was seeded on a fibronectin-coated 24 well plate (Becton Dickinson) at a cell number of 2×10^4 cells/500 μL/well (1×10^4 cells/cm^2 since bottom area was 2 cm^2). After completion of cell seeding, the culture plate was incubated in an incubator set to 37° C., 5% CO2, 95% air and 100% humidity for 24 hr, and the culture medium was changed to 400 μL of the basal medium (EpiLife added with insulin, hydrocortisone and transferrin from HCGS growth additives). After 24 hr thereafter, the culture medium was changed to the following culture medium (each 400 μL). • [1] basal medium alone (non-addition group) • [2] basal medium+mEGF (final concentration: 1 ng/mL; positive control group) • [3] basal medium+compound B (final concentration: 0.01 μM, 0.1 μM, 1 μM; compound B addition group) • [4] basal medium+compound C (final concentration: 0.01 μM, 0.1 μM, 1 μM; compound C addition group)
(§2) Ethanol (5 μL) was added to 1 mL each of culture media and [2] to uniformly set the ethanol concentration of all culture media to 0.5%.
(§3) After 24 hr from the start of the stimulation with compound B or compound C, the culture supernatant was removed from each well, and a basal medium added with 10% Cell Counting Kit-8 (DOJINDO) was dispensed to each well by 200 μL. After dispensing, the culture plate was transferred to an incubator set to 37° C., 5% CO2, 95% air and 100% humidity and incubated for 2 hr. The supernatant (100 μL) was transferred to a 96 well culture plate for tissue culture (Corning), and the absorbance of each well at 450 nm was measured with a microplate reader (Dainippon Sumitomo Pharma Co., Ltd.), and used as an index of cell number increase.
(§4) The values of the positive control group and the compound B or compound C addition group were calculated based on the average absorbance of the non-addition group as 100%, and the non-addition group was compared with the compound B or compound C addition group and positive control group according to the Dunnett multiple comparison test (one-tailed). A critical value of less than 5% as a result of the test was judged as significant.

[3] = test system: Normal human corneal epithelial cells; experiment: Effect on increase of cell number of normal human corneal epithelial cells (Experimental Example 1, Cell Counting Kit-8); settings: positive control, final concentration 1 ng/mL, 24 hr, relative to non-addition group = 100%, mean ± SD
Protocol: as §1
As a test substance, [3-[2-[4-isopropyl-2-(4-trifluoromethyl)phenyl-5-thiazolyl]ethyl]-5-methyl-1,2-benzisoxazol-6-yl]oxyacetic acid (hereinafter to be referred to as compound A) was used. Compound A was dissolved in ethanol (Wako Pure Chemical Industries, Ltd.) to a concentration 200-fold of the final concentration in a culture medium, and the solution was stored at −80° C. until immediately before use.
As a cell culture medium for consideration of the cell number-increasing effect by compound A, a culture medium (basal medium) obtained by adding insulin, hydrocortisone and transferrin contained in HCGS growth additive set (KURABO) to EpiLife (KURABO) was used.
Normal human corneal epithelial cells cryopreserved in liquid nitrogen were thawed and the cell number was counted. The total amount thereof was transferred to EpiLife added with all of the HCGS growth additive set (insulin, epidermal growth factor mEGF derived from mouse, hydrocortisone, transferrin, bovine brain hypophysis extract) (4 mL, complete medium), and suspended well therein. The cell suspension was seeded on a fibronectin-coated 24 well plate (Becton Dickinson) at a cell number of 2×10^4 cells/500 μL/well (1×10^4 cells/cm^2 since bottom area was 2 cm^2).
After completion of cell seeding, the culture plate was incubated in an incubator set to 37° C., 5% CO2, 95% air and 100% humidity for 24 hr, and the culture medium was changed to 400 μL of the basal medium (EpiLife added with insulin, hydrocortisone and transferrin from HCGS growth additives).
After 24 hr thereafter, the culture medium was changed to the following culture medium (each 400 μL). • [1] basal medium alone (non-addition group) • [2] basal medium+mEGF (final concentration: 1 ng/mL; positive control group) • [3] basal medium+compound A (final concentration: 0.1 nM, 1 nM, 0.01 μM, 0.1 μM; compound A addition group)
as §2
as §3, with “A,” for “B or compound C,”
as §4, with “A” for “B or compound C”

Row | Compound | cell number increase ratio ([1]; 10^−6 M) [%] | cell number increase ratio ([1]; 10^−7 M) [%] | cell number increase ratio ([1]; 10^−8 M) [%] | effect on cell number of normal human corneal epithelial cells (in words) [2] | cell number increase rate ([2]; 10^−6 M, 24 hr stimulation) [%] | cell number increase rate ([2]; 10^−7 M, 24 hr stimulation) [%] | cell number increase rate ([2]; 10^−8 M, 24 hr stimulation) [%] | cell number increase rate [3] [%] | cell number increase rate ([2]; positive control, final concentration 1 ng/mL, 24 hr) [%]
1 | Cc1cc(C(=O)CCc2sc(-c3ccc(C(F)(F)F)cc3)nc2C(C)C)ccc1OCC(=O)O [compound B, [4-[3-[2-(4-trifluoromethyl)phenyl-4-isopropyl-5-thiazolyl]propionyl]-2-methylphenoxy]acetic acid] | 158.8 ± 15.2 | 174.4 ± 8.9 | 155.0 ± 28.0 | increase the cell number of normal human corneal epithelial cells | 254.3 ± 11.7 | 256.4 ± 11.0 | 252.4 ± 34.7 | – | –
2 | Cc1cc(C(=O)CCc2nc(-c3ccc(Cl)cc3O)oc2C(C)C)ccc1OCC(=O)O [compound C, [4-[3-[2-(2-hydroxy-4-chlorophenyl)-5-isopropyl-4-oxazolyl]propionyl]-2-methylphenoxy]acetic acid] | 179.4 ± 7.5 | 175.2 ± 7.8 | 155.0 ± 11.6 | increase the cell number of normal human corneal epithelial cells | 260.2 ± 2.5 | 247.5 ± 14.1 | 243.3 ± 6.6 | – | –
3 | mEGF: epidermal growth factor mEGF derived from mouse, from HCGS growth additive set (KURABO); positive control (NSYPGCPSSYDGYCLNGGVCMHIESLDSYTCNCVIGYSGDRCQTRDLRWWELR; UniProt P01132 977-1029, looked up) [reference compound] | – | – | – | – | – | – | – | 147.5 ± 47.2 | 232.8 ± 22.5

Reference: patent US8802705B2, “Pharmaceutical containing PPAR delta agonist” (Senju Pharmaceutical Co., Ltd., priority 2007, dated 2014)
